Experimental data reported in US20240189375A1, “COMPOSITION COMPRISING A […] AN EXTRACT THEREOF FOR USE IN THE TREATMENT OF A VIRAL DISEASE” (priority 2021, published 2024).

Molecular target: T1, rACE2 (Homo sapiens, UniProt Q9BYF1)
T1 construct: purchased R&D systems, Zug
Assay: ACE2 enzymatic activity assay with fluorogenic substrate
Format: biochemical
Details: range of 0.045 nM to 11100 nM; positive control; read-out: half maximal inhibitory concentration (IC50) of ACE2 catalytic activity
Experimental: The ACE2 enzymatic activity assay was designed to measure the exopeptidase activity of ACE2 and to screen for inhibition. Activity was measured using a commercially available synthetic fluorogenic substrate for ACE2 and rACE2 (R&D systems, Zug). rACE2 was used to generate a standard curve using the assay buffer, 75 mM TRIS, 1M NaCl, ph7.5. Natural extract screening was performed using 100 ng/ml rACE2 and 15 μM ACE2 fluorogenic substrate plus the Chlorella extracts in various concentrations. Subsequently the mixture was incubated for 1 h at 37° C. and measured using Flexstation 3 (Molecular Devices, San Jose, CA, USA) at excitation 320 nm and emission 405 nm.

T1 sequence (Q9BYF1 18-805): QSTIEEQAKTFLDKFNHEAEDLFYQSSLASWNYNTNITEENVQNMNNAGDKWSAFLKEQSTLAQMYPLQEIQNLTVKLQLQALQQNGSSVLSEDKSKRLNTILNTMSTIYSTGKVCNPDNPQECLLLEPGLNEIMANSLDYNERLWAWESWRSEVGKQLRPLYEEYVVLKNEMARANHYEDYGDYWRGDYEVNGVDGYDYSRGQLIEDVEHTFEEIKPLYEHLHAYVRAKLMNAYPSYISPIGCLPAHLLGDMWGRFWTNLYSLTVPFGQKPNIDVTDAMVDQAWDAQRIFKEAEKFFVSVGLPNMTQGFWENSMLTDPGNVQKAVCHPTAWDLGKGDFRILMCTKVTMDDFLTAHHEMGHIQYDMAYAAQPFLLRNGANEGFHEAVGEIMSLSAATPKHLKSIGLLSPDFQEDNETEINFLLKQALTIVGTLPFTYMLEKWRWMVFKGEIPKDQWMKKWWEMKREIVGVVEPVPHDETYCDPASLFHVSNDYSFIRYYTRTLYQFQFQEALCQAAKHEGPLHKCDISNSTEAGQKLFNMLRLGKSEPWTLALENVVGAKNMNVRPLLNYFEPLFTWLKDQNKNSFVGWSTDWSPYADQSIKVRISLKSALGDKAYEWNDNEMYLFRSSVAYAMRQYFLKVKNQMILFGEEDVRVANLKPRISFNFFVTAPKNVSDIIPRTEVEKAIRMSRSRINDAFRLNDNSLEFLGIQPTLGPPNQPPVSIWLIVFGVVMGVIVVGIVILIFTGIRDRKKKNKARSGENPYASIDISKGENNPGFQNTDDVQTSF

`CC(C)C[C@H](N[C@@H](Cc1cncn1Cc1cc(Cl)cc(Cl)c1)C(=O)O)C(=O)O` [MLN-4760] was tested, and the IC50 was 0.19 nM.
